# Results as given in patent US20140045823A1 (Neurocrine Biosciences, Inc., priority 2012, published 2014).
# Target: T1, human GPR119 (Homo sapiens, UniProt Q8TDV5)
# T1 construct: expression vector for human GPR119 cDNA (Acc. No. NP_848566); expressed in transfected cells; Min-6/hGPR119
# T1 sequence (Q8TDV5 1-335): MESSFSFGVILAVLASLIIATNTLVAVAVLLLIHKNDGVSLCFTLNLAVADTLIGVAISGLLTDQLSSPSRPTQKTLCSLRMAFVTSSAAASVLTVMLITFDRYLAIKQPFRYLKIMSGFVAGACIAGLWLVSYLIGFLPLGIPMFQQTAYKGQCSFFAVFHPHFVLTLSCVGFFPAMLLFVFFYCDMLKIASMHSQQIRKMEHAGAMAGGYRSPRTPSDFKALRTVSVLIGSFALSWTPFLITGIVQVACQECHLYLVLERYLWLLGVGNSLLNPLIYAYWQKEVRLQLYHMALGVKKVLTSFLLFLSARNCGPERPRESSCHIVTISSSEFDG
# Experiment: AlphaScreen cAMP assay in MIN6 cells stably transfected with human GPR119
# Assay type: cell-based
# Settings: Min-6/hGPR119 cells, 45 min at room temperature
# Procedure, shortened: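 cAMP accumulation quantified by AlphaScreen after 45 min compound stimulation at about 20 °C. Stimulation buffer: pH 7.4 HEPES saline with 0.5 mM IBMX, 0.1% BSA, 1% DMSO final. Cells: MIN6 stably transfected with human GPR119, 10000/well, cultured 24 h beforehand.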
row,Compound,EC50 [nM]
1,"CC(C)(C)OC(=O)N1CCC(N(C(=O)c2cnc(-c3ccc(C(=O)NCCS(C)(=O)=O)c(F)c3)nc2)C2CC2)CC1 [Example 123, 4-(Cyclopropyl-{2-[3-fluoro-4-(2-methanesulfonyl-ethylcarbamoyl)-phenyl]-pyrimidine-5-carbonyl}-amino)-piperidine-1-carboxylic acid tert-butyl ester]",637
2,"CC(C)(C)OC(=O)N1CCC(N(C(=O)c2cnc(-c3ccc(C(=O)N4CCCC(CO)C4)c(F)c3)nc2)C2CC2)CC1 (stereo not drawn) [Example 129, 4-(Cyclopropyl-{2-[3-fluoro-4-(3-hydroxymethyl-piperidine-1-carbonyl)-phenyl]-pyrimidine-5-carbonyl}-amino)-piperidine-1-carboxylic acid tert-butyl ester]",548
3,"COC1CCN(C(=O)c2ccc(-c3ncc(C(=O)N(C4CC4)C4CCN(C(=O)OC(C)(C)C)CC4)cn3)c(F)c2)CC1 [Example 133, 4-(Cyclopropyl-{2-[2-fluoro-4-(4-methoxy-piperidine-1-carbonyl)-phenyl]-pyrimidine-5-carbonyl}-amino)-piperidine-1-carboxylic acid tert-butyl ester]",516
4,"COC[C@H]1CCCN1C(=O)c1ccc(-c2ncc(C(=O)N(C3CC3)C3CCN(C(=O)OC(C)(C)C)CC3)cn2)c(F)c1 [Example 134, 4-(Cyclopropyl-{2-[2-fluoro-4-(2-methoxymethyl-pyrrolidine-1-carbonyl)-phenyl]-pyrimidine-5-carbonyl}-amino)-piperidine-1-carboxylic acid tert-butyl ester]",561
5,"COCC(C)N(C)C(=O)c1ccc(-c2ncc(C(=O)N(C3CC3)C3CCN(C(=O)OC(C)(C)C)CC3)cn2)c(F)c1 (stereo not drawn) [Example 135, 4-[Cyclopropyl-(2-{2-fluoro-4-[(2-methoxy-1-methyl-ethyl)-methyl-carbamoyl]-phenyl}-pyrimidine-5-carbonyl)-amino]-piperidine-1-carboxylic acid tert-butyl ester]",914
6,"COC1CN(C(=O)c2ccc(-c3ncc(C(=O)N(C4CC4)C4CCN(C(=O)OC(C)(C)C)CC4)cn3)cc2F)C1 [Example 137, 4-(Cyclopropyl-{2-[3-fluoro-4-(3-methoxy-azetidine-1-carbonyl)-phenyl]-pyrimidine-5-carbonyl}-amino)-piperidine-1-carboxylic acid tert-butyl ester]",264
7,"CN(CCOCC1CC1)C(=O)c1ccc(-c2ncc(C(=O)N(C3CC3)C3CCN(C(=O)OC(C)(C)C)CC3)cn2)c(F)c1 [Example 138, 4-[Cyclopropyl-(2-{4-[(2-cyclopropylmethoxy-ethyl)-methyl-carbamoyl]-2-fluoro-phenyl}-pyrimidine-5-carbonyl)-amino]-piperidine-1-carboxyli acid tert-butyl ester]",346
8,"CN(Cc1ccncc1)C(=O)c1ccc(-c2ncc(C(=O)N(C3CC3)C3CCN(C(=O)OC(C)(C)C)CC3)cn2)cc1F [Example 139, 4-(Cyclopropyl-{2-[3-fluoro-4-(methyl-pyridin-4-ylmethyl-carbamoyl)-phenyl]-pyrimidine-5-carbonyl}-amino)-piperidine-1-carboxylic acid tert-butyl ester]",263
9,"CN(CC#N)C(=O)c1ccc(-c2ncc(C(=O)N(C3CC3)C3CCN(C(=O)OC(C)(C)C)CC3)cn2)c(F)c1 [Example 140, 4-({2-[4-(Cyanomethyl-methyl-carbamoyl)-2-fluoro-phenyl]-pyrimidine-5-carbonyl}-cyclopropyl-amino)-piperidine-1-carboxylic acid tert-butyl ester]",441
10,"CC(C)(C)OC(=O)N1CCC(N(C(=O)c2cnc(-c3ccc(C(=O)N4CCC(O)(C(F)(F)F)CC4)c(F)c3)nc2)C2CC2)CC1 [Example 141, 4-(Cyclopropyl-{2-[3-fluoro-4-(4-hydroxy-4-trifluoromethyl-piperidine-1-carbonyl)-phenyl]-pyrimidine-5-carbonyl}-amino)-piperidine-1-carboxylic acid tert-butyl ester]",231
11,"CC(C)(C)OC(=O)N1CCC(N(C(=O)c2cnc(-c3ccc(C(=O)NCC4(C)CCCO4)c(F)c3)nc2)C2CC2)CC1 (stereo not drawn) [Example 144, 4-[Cyclopropyl-(2-{3-fluoro-4-[(2-methyl-tetrahydro-furan-2-ylmethyl)-carbamoyl]-phenyl}-pyrimidine-5-carbonyl)-amino]-piperidine-1-carboxylic acid tert-butyl ester]",230
12,"CC(C)(C)OC(=O)N1CCC(N(C(=O)c2cnc(-c3ccc(C(=O)NC4CCOCC4)cc3F)nc2)C2CC2)CC1 [Example 145, 4-(Cyclopropyl-{2-[2-fluoro-4-(tetrahydro-pyran-4-ylcarbamoyl)-phenyl]-pyrimidine-5-carbonyl}-amino)-piperidine-1-carboxylic acid tert-buyl ester]",1000

# These reach a lower EC50. Values come first.
row,EC50 [nM],Compound
1,194,"Cn1ccc(CNC(=O)c2ccc(-c3ncc(C(=O)N(C4CC4)C4CCN(C(=O)OC(C)(C)C)CC4)cn3)cc2F)n1 [Example 136, 4-[Cyclopropyl-(2-{3-fluoro-4-[(1-methyl-1H-pyrazol-3-ylmethyl)-carbamoyl]-phenyl}-pyrimidine-5-carbonyl)-amino]-piperidine-1-carboxylic acid tert-butyl ester]"
2,193,"COCC(C)NC(=O)c1ccc(-c2ncc(C(=O)N(C3CC3)C3CCN(C(=O)OC(C)(C)C)CC3)cn2)cc1F (stereo not drawn) [Example 130, 4-(Cyclopropyl-{2-[3-fluoro-4-(2-methoxy-1-methyl-ethylcarbamoyl)-phenyl]-pyrimidine-5-carbonyl}-amino)-piperidine-1-carboxylic acid tert-butyl ester]"
3,180,"CC(C)(C)OC(=O)N1CCC(N(C(=O)c2cnc(-c3ccc(C(=O)N4CCC[C@H]4C#N)c(F)c3)nc2)C2CC2)CC1 [Example 125, 4-({2-[4-(2-Cyano-pyrrolidine-1-carbonyl)-3-fluoro-phenyl]-pyrimidine-5-carbonyl}-cyclopropyl-amino)-piperidine-1-carboxylic acid tert-butyl ester]"
4,175,"CC(C)(C)OC(=O)N1CCC(N(C(=O)c2cnc(-c3ccc(C(=O)NCC4CCOC4)c(F)c3)nc2)C2CC2)CC1 (stereo not drawn) [Example 131, 4-[Cyclopropyl-(2-{3-fluoro-4-[(tetrahydro-furan-3-ylmethyl)-carbamoyl]-phenyl}-pyrimidine-5-carbonyl)-amino]-piperidine-1-carboxylic acid tert-butyl ester]"
5,168,"COc1ccc(NC(=O)c2ccc(-c3ncc(C(=O)N(C4CC4)C4CCN(C(=O)OC(C)(C)C)CC4)cn3)c(F)c2)c(OC)c1 [Example 143, 4-(Cyclopropyl-{2-[4-(2,4-dimethoxy-phenylcarbamoyl)-2-fluoro-phenyl]-pyrimidine-5-carbonyl}-amino)-piperidine-1-carboxylic acid tert-butyl ester]"
6,156,"CC(C)(C)OC(=O)N1CCC(N(C(=O)c2cnc(-c3ccc(C(=O)NCC4CCOCC4)c(F)c3)nc2)C2CC2)CC1 [Example 128, 4-[Cyclopropyl-(2-{3-fluoro-4-[(tetrahydro-pyran-4-ylmethyl)-carbamoyl]-phenyl}-pyrimidine-5-carbonyl)-amino]-piperidine-1-carboxylic acid tert-butyl ester]"
7,108,"CN(Cc1cccnc1)C(=O)c1ccc(-c2ncc(C(=O)N(C3CC3)C3CCN(C(=O)OC(C)(C)C)CC3)cn2)cc1F [Example 127, 4-(Cyclopropyl-{2-[3-fluoro-4-(methyl-pyridin-3-ylmethyl-carbamoyl)-phenyl]-pyrimidine-5-carbonyl}-amino)-piperidine-1-carboxylic acid tert-butyl ester]"
8,105,"CC(C)(C)OC(=O)N1CCC(N(C(=O)c2cnc(-c3ccc(C(=O)NCCOC(F)(F)F)c(F)c3)nc2)C2CC2)CC1 [Example 142, 4-(Cyclopropyl-{2-[3-fluoro-4-(2-trifluoromethoxy-ethylcarbamoyl)-phenyl]-pyrimidine-5-carbonyl}-amino)-piperidine-1-carboxylic acid tert-butyl ester]"
9,102,"CN(CCOCC1CC1)C(=O)c1ccc(-c2ncc(C(=O)N(C3CC3)C3CCN(C(=O)OC(C)(C)C)CC3)cn2)cc1F [Example 124, 4-[Cyclopropyl-(2-{4-[(2-cyclopropylmethoxy-ethyl)-methyl-carbamoyl]-3-fluoro-phenyl}-pyrimidine-5-carbonyl)-amino]-piperidine-1-carboxylic acid tert-butyl ester]"
10,99,"CC(C)(C)OC(=O)N1CCC(N(C(=O)c2cnc(-c3ccc(C(=O)NCc4ccncc4)c(F)c3)nc2)C2CC2)CC1 [Example 126, 4-[Cyclopropyl-(2-{3-fluoro-4-[(pyridin-4-ylmethyl)-carbamoyl]-phenyl}-pyrimidine-5-carbonyl)-amino]-piperidine-1-carboxylic acid tert-butyl ester]"
11,98,"CN(CC#N)C(=O)c1ccc(-c2ncc(C(=O)N(C3CC3)C3CCN(C(=O)OC(C)(C)C)CC3)cn2)cc1F [Example 132, 4-({2-[4-(Cyanomethyl-methyl-carbamoyl)-3-fluoro-phenyl]-pyrimidine-5-carbonyl}-cyclopropyl-amino)-piperidine-1-carboxylic acid tert-butyl ester]"
12,64,"CC(C)(C)OC(=O)N1CCC(N(C(=O)c2cnc(-c3ccc(C(=O)NCC4CCCO4)c(F)c3)nc2)C2CC2)CC1 (stereo not drawn) [Example 146, 4-[Cyclopropyl-(2-{3-fluoro-4-[(tetrahydro-furan-2-ylmethyl)-carbamoyl]-phenyl}-pyrimidine-5-carbonyl)-amino]-piperidine-1-carboxylic acid tert-butyl ester]"
